Patent publication US20020173491A1, “DAPD combination therapy with inosine monophosphate dehydrogenase inhibitor” (priority 2000, published 2002)
Read-outs that look alike come from different tables or passages of the source.

Key:
xxLAI strain of HIV-1 [1] = test: microbe, parasite or virus in culture; type: cell-based; conditions: for Fold difference in EC50, 0.1 μM MPA: control vs with 0.1 μM MPA; for Fold difference in EC50, 0.25 μM MPA: control vs with 0.25 μM MPA (fold decrease); for Fold difference in EC50, 5 μM RBV: control vs with 5 μM RBV; for Fold difference in EC50, 10 μM RBV: control vs with 10 μM RBV
Procedure: Triplicate samples of compound were tested. MT2 cells were infected with xxLAI at a multiplicity of infection (MOI) of 0.03 for 3 hours at 37° C. in 5% CO2. The infected cells were plated at 3.0×10^4/well into a 96 well plated containing drug dilutions and incubated for 5 days at 37° C. in CO2. […] This method has been modified into a susceptibility assay and has been used in a variety of in vitro antiviral tests and is readily adaptable to any system with a lytic virus (Weislow, O. S., et. al. 1989). Using the absorption values of the cell controls as 100% protection and no drug, virus infected cells as 0% protection, a dose response curve is generated by plotting % protection on the Y axis and drug concentration on the X axis. From this curve EC50 values were determined.
Assays were performed in the MT2 cell line as described above in the XXT sensitivity assay section.
MPA was tested for activity against the xxLAI strain of HIV-1 in the laboratory adapted cell line MT2. Dilutions of MPA were made in cell culture media in a 96 well plate; the highest concentration tested was 1 μM. Triplicate samples of compound were tested. MT2 cells were infected with xxLAI at a multiplicity of infection (MOI) of 0.03 for 3 hours at 37° C. in 5% CO2. The infected cells were plated at 3.0×10^4/well into a 96 well plated containing drug dilutions and incubated for 5 days at 37° C. in CO2. The antiviral activity of MPA was determined using the XTT assay described above. This method has been modified into a susceptibility assay and has been used in a variety of in vitro antiviral tests and is readily adaptable to any system with a lytic virus (Weislow, O. S., et. al. 1989). Using the absorption values of the cell controls as 100% protection and no drug, virus infected cells as 0% protection, a dose response curve is generated by plotting % protection on the Y axis and drug concentration on the X axis. From this curve EC50 values were determined.
The concentrations of MPA used were 1, 0.5, 0.25, 0.1, and 0.01 μM. Assays were performed in the MT2 cell line as described in section 3.1.

xxLAI strain of HIV-1 [2] = test: microbe, parasite or virus in culture; type: cell-based; conditions: for effect of addition of 0.25 μM MPA on anti-HIV activity in PBMCs / effect of addition of 20 μM RBV on anti-HIV activity in PBMCs / Fold difference in EC50, 0.1 μM MPA / Fold difference in EC50, 0.25 μM MPA / Fold difference in EC50, 5 μM RBV / Fold difference in EC50, 10 μM RBV / Fold difference in EC50, 20 μM RBV: PBMC; for effect of addition of 0.25 μM MPA on anti-HIV activity in PBMCs / effect of addition of 20 μM RBV on anti-HIV activity in PBMCs: all the concentrations tested; for Fold difference in EC50, 0.1 μM MPA: control vs with 0.1 μM MPA; for Fold difference in EC50, 0.25 μM MPA: control vs with 0.25 μM MPA; for Fold difference in EC50, 5 μM RBV: control vs with 5 μM RBV; for Fold difference in EC50, 10 μM RBV: control vs with 10 μM RBV; for Fold difference in EC50, 20 μM RBV: control vs with 20 μM RBV
Procedure: In this assay, cell supernatants were incubated on microelisa wells coated with antibodies to HIV-1 p24 core antigen. Subsequently, anti-HIV-1 conjugate labeled with horseradish peroxidase was added. The labeled antibody bound to the solid phase antibody/antigen complexes previously formed. Addition of the tetramethylbenzidine substrate results in blue color formation. The color turned yellow when the reaction is stopped. The plates were then analyzed on a plate reader set at 490 nm. The absorbance is a direct measurement of the amount of HIV-1 produced in each well and a decrease in color indicates decreased viral production. […] PBMC were obtained from HIV-1 negative donors by banding on Ficoll gradients, stimulated with phytohemaglutinin (PHAP) for 48 hours prior to infection with HIV-1, and infected with virus for 4 hours at 37° C. at a MOI of 0.001. […] Plates were incubated for 3 days at 37° C. The concentration of virus in each well was determined using the NEN p24 assay. Using the absorption values of the cell controls as 100% protection and drug free, virus infected cells as 0% protection, a dose response curve is generated by plotting percent protection on the Y axis and drug concentration on the X axis. From this curve, EC50 values were determined.
Compound dilutions and assay conditions were as described above.
MPA was also tested for activity against the xxLAI strain of HIV-1 in PBMCs using a p24 based Elisa assay. In this assay, cell supernatants are incubated on microelisa wells coated with antibodies to HIV-1 p24 core antigen. Subsequently, anti-HIV-1 conjugate labeled with horse radish peroxidase is added. The labeled antibody binds to the solid phase antibody/antigen complexes previously formed. Addition of the tetramethylbenzidine substrate results in blue color formation. The color turns yellow when the reaction is stopped. The plates are then analyzed on a plate reader set at 490 nm. The absorbance is a direct measurement of the amount of HIV-1 produced in each well and a decrease in color indicates decreased viral production. Dilutions of MPA were made in cell culture media in a 96 well plate, the highest concentration of MPA tested was 1 μM. PBMC were obtained from HIV-1 negative donors by banding on Ficoll gradients, stimulated with phytohemaglutinin (PHAP) for 48 hours prior to infection with HIV-1, and infected with virus for 4 hours at 37° C. at a MOI of 0.001. Infected cells were seeded into 96 well plates containing 4-fold serial dilutions of MPA. Plates were incubated for 3 days at 37° C. The concentration of virus in each well was determined using the NEN p24 assay. Using the absorption values of the cell controls as 100% protection and drug free, virus infected cells as 0% protection, a dose response curve is generated by plotting % protection on the Y axis and drug concentration on the X axis. From this curve EC50 values were determined.
Compound dilutions and assay conditions were as described above. The concentrations of MPA used were 1, 0.5, 0.25, 0.1, and 0.01 μM.

[3] = Human immunodeficiency virus 1, MT2, read-out: Mean EC50, Control, MT2 cells, no MPA
[4] = Human immunodeficiency virus 1, MT2, read-out: Mean EC50, Control, MT2 cells, no RBV
[5] = read-out: Mean EC50, 0.01 μM MPA, MT2 cells, with 0.01 μM MPA
[6] = read-out: Mean EC50, 0.1 μM MPA, MT2 cells, with 0.1 μM MPA
[7] = read-out: Mean EC50, 0.25 μM MPA, MT2 cells, with 0.25 μM MPA
[8] = read-out: Mean EC50, 5 μM RBV, MT2 cells, with 5 μM RBV
[9] = read-out: Mean EC50, 10 μM RBV, MT2 cells, with 10 μM RBV
[10] = read-out: Mean EC50, 20 μM RBV, MT2 cells, with 20 μM RBV
[11] = Human immunodeficiency virus 1, PBMC, read-out: Mean EC50, Control, PMBCs, no MPA
[12] = Human immunodeficiency virus 1, PBMC, read-out: Mean EC50, Control, PMBCs, no RBV
[13] = read-out: Mean EC50, 0.01 μM MPA, PMBCs, with 0.01 μM MPA
[14] = read-out: Mean EC50, 0.1 μM MPA, PMBCs, with 0.1 μM MPA
[15] = read-out: Mean EC50, 0.25 μM MPA, PMBCs, with 0.25 μM MPA
[16] = read-out: Mean EC50, 1 μM RBV, PMBCs, with 1 μM RBV
[17] = read-out: Mean EC50, 5 μM RBV, PMBCs, with 5 μM RBV
[18] = read-out: Mean EC50, 10 μM RBV, PMBCs, with 10 μM RBV
[19] = read-out: Mean EC50, 20 μM RBV, PMBCs, with 20 μM RBV

Compound | EC50 (xxLAI strain of HIV-1 [1]; [3]) [nM] | EC50 (xxLAI strain of HIV-1 [1]; [4]) [nM] | Fold difference in EC50, 0.1 μM MPA (xxLAI strain of HIV-1 [1]; MT2 cells) [fold] | Fold difference in EC50, 0.25 μM MPA (xxLAI strain of HIV-1 [1]; MT2 cells) [fold] | Fold difference in EC50, 5 μM RBV (xxLAI strain of HIV-1 [1]; MT2 cells) [fold] | Fold difference in EC50, 10 μM RBV (xxLAI strain of HIV-1 [1]; MT2 cells) [fold] | EC50 (xxLAI strain of HIV-1 [1]; [5]) [nM] | EC50 (xxLAI strain of HIV-1 [1]; [6]) [nM] | EC50 (xxLAI strain of HIV-1 [1]; [7]) [nM] | EC50 (xxLAI strain of HIV-1 [1]; [8]) [nM] | EC50 (xxLAI strain of HIV-1 [1]; [9]) [nM] | EC50 (xxLAI strain of HIV-1 [1]; [10]) [nM] | EC50 (xxLAI strain of HIV-1 [2]; [11]) [nM] | EC50 (xxLAI strain of HIV-1 [2]; [12]) [nM] | effect of addition of 0.25 μM MPA on anti-HIV activity in PBMCs (xxLAI strain of HIV-1 [2]; with 0.25 μM MPA) | effect of addition of 20 μM RBV on anti-HIV activity in PBMCs (xxLAI strain of HIV-1 [2]; with 20 μM RBV) | Fold difference in EC50, 0.1 μM MPA (xxLAI strain of HIV-1 [2]) [fold] | Fold difference in EC50, 0.25 μM MPA (xxLAI strain of HIV-1 [2]) [fold] | EC50 (xxLAI strain of HIV-1 [2]; [13]) [nM] | EC50 (xxLAI strain of HIV-1 [2]; [14]) [nM] | other results
Cc1cn([C@H]2C[C@H](N=[N+]=[N-])[C@@H](CO)O2)c(=O)[nH]c1=O [AZT, 3′-azido-3′-deoxy-thymidine] | 420 | 1700 | 0.5 | 0.44 | 0.37 | 0.29 | 300 | 800 | 950 | 4600 | 5900 | > 10000 | 3.1 | 3 | little effect | little effect | 1.5 | 1.8 | 2.6 | 2.1 | fold increase in the apparent EC50 (xxLAI strain of HIV-1 [1]; MT2 cells, addition of 0.25 μM MPA): 2.3 fold; Fold difference in EC50, 1 μM RBV (xxLAI strain of HIV-1 [1]; MT2 cells, control vs with 1 μM RBV): 0.59 fold; Fold difference in EC50, 20 μM RBV (xxLAI strain of HIV-1 [1]; MT2 cells, control vs with 20 μM RBV (fold decrease)): <0.17 fold; EC50 (xxLAI strain of HIV-1 [1]; read-out: Mean EC50, 1 μM RBV, MT2 cells, with 1 μM RBV): 2900 nM; Fold difference in EC50, 5 μM RBV (xxLAI strain of HIV-1 [2]): 1.2 fold; Fold difference in EC50, 10 μM RBV (xxLAI strain of HIV-1 [2]): 1.4 fold; Fold difference in EC50, 20 μM RBV (xxLAI strain of HIV-1 [2]): 1.4 fold; EC50 (xxLAI strain of HIV-1 [2]; [15]): 1.7 nM; EC50 (xxLAI strain of HIV-1 [2]; [16]): 3.5 nM; EC50 (xxLAI strain of HIV-1 [2]; [17]): 2.6 nM; EC50 (xxLAI strain of HIV-1 [2]; [18]): 2.2 nM; EC50 (xxLAI strain of HIV-1 [2]; [19]): 2.1 nM
Nc1nc(NC2CC2)c2ncn([C@H]3C=C[C@@H](CO)C3)c2n1 [Abacavir] | 2400 | 4700 | 1 | 1.7 | 0.68 | 0.73 | – | – | 1400 | 6900 | 6400 | 5700 | 1200 | 540 | completely inhibited HIV replication | completely inhibited HIV replication | 3.2 | >50 | 1100 | 380 | fold difference in the apparent EC50 on addition of RBV (xxLAI strain of HIV-1 [1]; MT2 cells, addition of RBV): less than 2 fold; Fold difference in EC50, 5 μM RBV (xxLAI strain of HIV-1 [2]): 4.9 fold; Fold difference in EC50, 10 μM RBV (xxLAI strain of HIV-1 [2]): 18 fold; Fold difference in EC50, 20 μM RBV (xxLAI strain of HIV-1 [2]): >18 fold; EC50 (xxLAI strain of HIV-1 [2]; [15]): < 0.5 nM; EC50 (xxLAI strain of HIV-1 [2]; [16]): 200 nM; EC50 (xxLAI strain of HIV-1 [2]; [17]): 110 nM; EC50 (xxLAI strain of HIV-1 [2]; [18]): 30 nM; EC50 (xxLAI strain of HIV-1 [2]; [19]): < 30 nM
Nc1nc(=O)n([C@@H]2CS[C@H](CO)O2)cc1F [FTC] | – | – | 1 | – | – | – | 620 | 620 | – | – | – | – | – | – | little effect | – | 1.2 | 1.8 | 8 | 9.3 | EC50 (xxLAI strain of HIV-1 [1]; MT2 cells, no MPA, read-out: Mean EC50, Control): 600 nM; EC50 (xxLAI strain of HIV-1 [1]; MT2 cells, with 0.25 μM MPA, read-out: Mean EC50, 0.25 μM MPA): 400 nM; EC50 (xxLAI strain of HIV-1 [2]; PMBCs, no MPA, read-out: Mean EC50, Control): 11 nM; EC50 (xxLAI strain of HIV-1 [2]; PMBCs, with 0.25 μM MPA, read-out: Mean EC50, 0.25 μM MPA): 6 nM
